Converted amounts (≈) assume the structure as drawn.
Columns and labels:
NF-κB = test: Anti-inflammatory bioassay (Quanti-Blue assay), SEAP activity; type: cell-based, murine; conditions: Mus musculus, Macrophage; LPS-stimulated macrophages; read-out: IC50, inhibition of SEAP activity
Description: RAW-Blue cells (5×10^4) are cultured in 96-well plate for 24 hours, and then treated with LPS (1 μg/mL) alone or together with test samples for 20 hours. Secreted embryonic alkaline phosphatase (SEAP) activity in the conditioned medium is determined using QUANTI-Blue medium following manufacturer's manual. Briefly, 100 μL samples are added to 200 μL of QUANTI-Blue medium and incubated at 37° C. for 15 to 30 minutes. Absorbance is measured at 620 nm using a micro-plate reader (Benchmark plus Bio-Red, CA, USA) and fold change in SEAP activity is calculated accordingly.
Raw-Blue cells are derived from RAW264.7 macrophages. Then the murine macrophage cell line of Raw-Blue cells is cultured in plastic dishes containing DMEM supplemented with 100 U/mL of penicillin, 100 μg/mL of streptomycin and 10% FBS in an incubator (5% CO2) at 37° C. Cells are sub-cultured every 3 days at a dilution of 1:6.
The SEAP activity in the supernatants of LPS-stimulated RAW-Blue cells reflects the activation of NF-κB. The inhibition of the NF-κB activation can associate with mitigation of colon inflammation responses and apoptosis of intestinal epithelial cells in DSS mouse model. Western blotting and immunofluorescence analysis are performed to determine whether Pd-Ib depressed NF-κB activation. […]

Myeloperoxidase (MPO) = test: Neutrophil infiltration in colon tissue (MPO assay); type: in vivo, C57BL/6 mice; conditions: DSS-induced colitic mice, Pd-Ib treatment groups
Description: Myeloperoxidase (MPO) is an enzyme mainly released by neutrophil, and its activity is directly associated with the severity of inflammation in a given tissue. In this example, MPO activity is measured as described in our previous study. Briefly, the colon tissues kept at −80° C. are weighed and homogenized in 0.5% hexadecyltrimethylammonium bromide 1 mL per 100 mg of colon tissue. The homogenates are centrifuged at 19 000 rpm at 4° C. for 15 min. Aliquots of 80 iL supernatant are mixed with 120 μL potassium phosphate buffer (50 mmol, pH 6.0) with 0.0005% o-dianisidine dihydrochloride and 0.1% hydrogen peroxide. Changes in optical density are measured at 460 nm at room temperature (25° C.). MPO activity is calculated from the rate of optical density changes and one unit of MPO activity is defined as the amount of enzyme present that produced a change in optical density of […] at 25° C. in the final reaction volume. The results are normalized to the wet weight of colon tissue and quantified as units/mg tissue.
Colitis is induced in all groups except the control group. Pd-Ib and sulfasalazine are administered to mice from day 6 to day 12. On day 13, the mice are sacrificed, and MPO activity is determined in colon homogenates. Data are expressed as mean±SEM, n=8 (*p<0.05, **p<0.01, ***p<0.001, compared with DSS model group).

IL-4 = test: ELISA of IL-4 in colon tissue, DSS-induced colitis; type: in vivo, C57BL/6 mice; conditions: compared with the DSS treatment group; increase in IL-4
Description: Colon levels of cytokines are assayed using commercially available ELISA kits. Briefly, colon samples are homogenized in phosphate buffer containing 0.05% Tween-20, 0.1 mM phenylmethylsulfonyl fluoride, 0.1 mM benzethonium chloride, 10 mM EDTA, and 20 IU aprotinin A. The homogenates are centrifuged at 16000 g at 4° C. for 15 min, and the supernatants are collected for the determination of levels of the cytokines, IL-6, IL-4, TNF-α, and IFN-γ, according to the manufacturer's protocols. The amount of protein in each sample is measured by the Bradford method, using bovine serum albumin as a standard. The levels of each cytokine are evaluated in each sample and expressed in […].
Colitis is induced in all groups except the control group. Pd-Ib and sulfasalazine are administered to mice from day 6 to day 12. On day 13, the mice are sacrificed, Data are expressed as mean±SEM, n=8 (*p<0.05, **p<0.01, ***p<0.001, compared with DSS model group).

IL-1β = test: Real-time PCR of IL-1β mRNA in LPS-stimulated RAW-Blue cells; type: cell-based, murine; conditions: LPS 1 μg/mL, 5, 10, 20 μg/mL, 20 hours
Description: After macrophages are treated with 1 μg/mL of LPS in absence or presence various concentrations of Pd-Ib (5, 10, 20 μg/mL) for 20 hours, the mRNA levels of iNOS (A), TNF-α (B) and IL-1β (C) are determined by real time PCR, while the production of NO (D) is determined by Griess reagent. Data are derived from three independent experiments and presented as mean±SEM, “con” stands for the vehicle control group. ^#Compared with control group. *P<0.05, **P<0.01 and ***P<0.001 are compared with LPS-alone group.
Raw-Blue cells are plated at 20×10^5 cells/well in 12-well plate. After 24 hours of incubation, cells are pretreated with various concentrations (5-20 μg/mL) of Pd-Ib for 2 hours, followed by co-culturing with LPS (1 μg/mL) for 20 hours. Total RNA of Raw-Blue cells is extracted by Trizol reagent. Two micrograms (2 μg) of total RNA are reverse-transcribed with RT master mix to obtain cDNA. Real-time PCR is performed in a ViiA7 real-time PCR instrument (Applied Biosystems, Life Technologies, CA, USA) with the SYBR Green kit. A melting curve analysis is carried out after amplification to verify the accuracy of the amplicon. The comparative cycle of threshold (ΔΔCT) method of relative quantification is used to determine the fold-change in expression. Primer sequences for mRNA analysis of IL-1β, TNF-α, iNOS and β-Actin are described in Table 1.

IC50 (NF-κB): 22.5 µg/mL (≈ 65.8 µM)
SMILES: C/C=C(\C)C(=O)OC1C(=O)c2c(ccc3ccc(=O)oc23)OC1(C)C (single isomer, unassigned; (+)) [Pd-Ib, (+)-3′-Angeloyloxy-4′-keto-3′,4′-dihydroseselin]
MPO activity in colon (Myeloperoxidase (MPO)): suppresses MPO activity significantly
production of IL-4 in colon tissue (IL-4): significant effect on the production of IL-4 in a dose-dependent manner
mRNA expression of IL-1β (IL-1β): inhibit the mRNA expressions of TNF-α and IL-1β in a dose-dependent manner

Reference: patent US9408828B2, “(+)-3′-angeloyloxy-4′-keto-3′,4′-dihydroseselin for treating inflammation” (Hong Kong Baptist University, priority 2014, dated 2016)
